According to PubChem BioAssay (NCI):
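Test compounds were applied to cells in 96-well plates for 48 hours at 5 doses. At the GI50, growth is halved. TGI: total growth inhibition.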

Legend:
Assay in all cases: DTP human tumour cell line panel, 48 h
HL-60(TB) leukemia = test system: HL-60(TB) leukemia
HS 578T breast = test system: HS 578T breast
T-47D breast = test system: T-47D breast
OVCAR-8 ovarian = test system: OVCAR-8 ovarian
MDA-MB-231 breast = test system: MDA-MB-231 breast
786-0 renal = test system: 786-0 renal
RPMI-8226 leukemia = test system: RPMI-8226 leukemia
BT-549 breast = test system: BT-549 breast
MALME-3M melanoma = test system: MALME-3M melanoma
A549 NSCLC = test system: A549 NSCLC
SN12C renal = test system: SN12C renal
NCI-H226 lung = test system: NCI-H226 lung
EKVX NSCLC = test system: EKVX NSCLC
SF-539 CNS = test system: SF-539 CNS
OVCAR-3 ovarian = test system: OVCAR-3 ovarian
PC-3 prostate = test system: PC-3 prostate
M14 melanoma = test system: M14 melanoma
IGROV1 ovarian = test system: IGROV1 ovarian
MDA-MB-435 = test system: MDA-MB-435
SF-295 CNS = test system: SF-295 CNS
MOLT-4 leukemia = test system: MOLT-4 leukemia
HCT-116 colon = test system: HCT-116 colon
UACC-257 melanoma = test system: UACC-257 melanoma
MCF7 breast = test system: MCF7 breast
HOP-92 NSCLC = test system: HOP-92 NSCLC
CAKI-1 renal = test system: CAKI-1 renal
UACC-62 melanoma = test system: UACC-62 melanoma
RXF 393 renal = test system: RXF 393 renal
U251 CNS = test system: U251 CNS
HT29 colon = test system: HT29 colon
SK-MEL-5 melanoma = test system: SK-MEL-5 melanoma
CCRF-CEM leukemia = test system: CCRF-CEM leukemia
KM12 colon = test system: KM12 colon
SNB-75 CNS = test system: SNB-75 CNS
TK-10 renal = test system: TK-10 renal
NCI-H522 lung = test system: NCI-H522 lung
HCT-15 colon = test system: HCT-15 colon
SW-620 colon = test system: SW-620 colon
SNB-19 CNS = test system: SNB-19 CNS
UO-31 renal = test system: UO-31 renal
NCI-H460 lung = test system: NCI-H460 lung
SF-268 CNS = test system: SF-268 CNS
NCI-H23 lung = test system: NCI-H23 lung
DU-145 prostate = test system: DU-145 prostate
A498 renal = test system: A498 renal
ACHN renal = test system: ACHN renal
OVCAR-4 ovarian = test system: OVCAR-4 ovarian
K-562 leukemia = test system: K-562 leukemia
SK-MEL-28 melanoma = test system: SK-MEL-28 melanoma
OVCAR-5 ovarian = test system: OVCAR-5 ovarian
LOX IMVI melanoma = test system: LOX IMVI melanoma
COLO 205 colon = test system: COLO 205 colon
HOP-62 NSCLC = test system: HOP-62 NSCLC

N=C(N)c1ccc(-c2ccc(-c3ccc(Cl)c(Cl)c3)o2)cc1
GI50 (HL-60(TB) leukemia): 1.55 µM | TGI (HL-60(TB) leukemia): 4.05 µM | GI50 (HS 578T breast): 2.1 µM | TGI (HS 578T breast): 5.52 µM

Fc1ccc(-c2nn3c(COc4ccc(Cl)cc4Cl)nnc3s2)cc1Oc1ccccc1
GI50 (T-47D breast): 11.6 µM | TGI (T-47D breast): 25.7 µM | GI50 (OVCAR-8 ovarian): 27.8 µM | TGI (OVCAR-8 ovarian): > 100 µM | GI50 (MDA-MB-231 breast): 11.6 µM | TGI (MDA-MB-231 breast): 23.8 µM | GI50 (786-0 renal): 14 µM | TGI (786-0 renal): 26.9 µM | GI50 (RPMI-8226 leukemia): 18.3 µM | TGI (RPMI-8226 leukemia): 39.1 µM | GI50 (BT-549 breast): 19.3 µM | TGI (BT-549 breast): 43.8 µM | GI50 (MALME-3M melanoma): 17 µM | TGI (MALME-3M melanoma): 35.2 µM | GI50 (A549 NSCLC): 20.7 µM | TGI (A549 NSCLC): 62.2 µM | GI50 (SN12C renal): 12.9 µM | TGI (SN12C renal): 29.6 µM | GI50 (NCI-H226 lung): 21 µM | TGI (NCI-H226 lung): 74 µM | GI50 (EKVX NSCLC): 23.7 µM | TGI (EKVX NSCLC): 67.3 µM | GI50 (SF-539 CNS): 18 µM | TGI (SF-539 CNS): 32.3 µM | GI50 (OVCAR-3 ovarian): 0.705 µM | TGI (OVCAR-3 ovarian): 13.3 µM | GI50 (PC-3 prostate): 8.94 µM | TGI (PC-3 prostate): 21.4 µM | GI50 (M14 melanoma): 23 µM | TGI (M14 melanoma): 67.2 µM | GI50 (IGROV1 ovarian): 26.2 µM | TGI (IGROV1 ovarian): 92.6 µM | GI50 (MDA-MB-435): 16.8 µM | TGI (MDA-MB-435): 50.8 µM | GI50 (SF-295 CNS): 6.2 µM | TGI (SF-295 CNS): 20 µM | GI50 (MOLT-4 leukemia): 7.08 µM | TGI (MOLT-4 leukemia): 27.8 µM | GI50 (HCT-116 colon): 13.2 µM | TGI (HCT-116 colon): 25.9 µM | GI50 (UACC-257 melanoma): 55.4 µM | TGI (UACC-257 melanoma): > 100 µM | GI50 (MCF7 breast): 67.1 µM | TGI (MCF7 breast): > 100 µM | GI50 (HOP-92 NSCLC): 0.254 µM | TGI (HOP-92 NSCLC): 7.93 µM | GI50 (CAKI-1 renal): 12.8 µM | TGI (CAKI-1 renal): 25.4 µM | GI50 (UACC-62 melanoma): 14.3 µM | TGI (UACC-62 melanoma): 28.9 µM | GI50 (RXF 393 renal): 18.7 µM | TGI (RXF 393 renal): 45.9 µM | GI50 (U251 CNS): 12.9 µM | TGI (U251 CNS): 25.6 µM | GI50 (HT29 colon): 15.9 µM | TGI (HT29 colon): 34.8 µM | GI50 (SK-MEL-5 melanoma): 23 µM | TGI (SK-MEL-5 melanoma): 71.2 µM | GI50 (CCRF-CEM leukemia): 16.8 µM | TGI (CCRF-CEM leukemia): 39 µM | GI50 (KM12 colon): 28.9 µM | TGI (KM12 colon): 91.2 µM | GI50 (SNB-75 CNS): 32.2 µM | TGI (SNB-75 CNS): 91.1 µM | GI50 (TK-10 renal): 12.2 µM | TGI (TK-10 renal): 25.2 µM | GI50 (NCI-H522 lung): 27 µM | TGI (NCI-H522 lung): > 100 µM | GI50 (HCT-15 colon): 43.2 µM | TGI (HCT-15 colon): > 100 µM | GI50 (SW-620 colon): 36.9 µM | TGI (SW-620 colon): > 100 µM | GI50 (SNB-19 CNS): 13.3 µM | TGI (SNB-19 CNS): 26.1 µM | GI50 (UO-31 renal): 30 µM | TGI (UO-31 renal): > 100 µM | GI50 (NCI-H460 lung): 25.4 µM | TGI (NCI-H460 lung): > 100 µM | GI50 (HS 578T breast): 16.4 µM | TGI (HS 578T breast): 47.5 µM | GI50 (SF-268 CNS): 29.8 µM | TGI (SF-268 CNS): 87.8 µM | GI50 (NCI-H23 lung): 13.6 µM | TGI (NCI-H23 lung): 26.4 µM | GI50 (DU-145 prostate): 19.2 µM | TGI (DU-145 prostate): 42.5 µM | GI50 (A498 renal): 20.2 µM | TGI (A498 renal): 40.6 µM | GI50 (ACHN renal): 14.1 µM | TGI (ACHN renal): 27.3 µM | GI50 (OVCAR-4 ovarian): 24.6 µM | TGI (OVCAR-4 ovarian): > 100 µM | GI50 (K-562 leukemia): 21.2 µM | TGI (K-562 leukemia): > 100 µM | GI50 (SK-MEL-28 melanoma): 15.8 µM | TGI (SK-MEL-28 melanoma): 42.9 µM | GI50 (OVCAR-5 ovarian): 11.1 µM | TGI (OVCAR-5 ovarian): 23.7 µM | GI50 (LOX IMVI melanoma): 14.6 µM | TGI (LOX IMVI melanoma): 29 µM | GI50 (COLO 205 colon): 19.6 µM | TGI (COLO 205 colon): > 100 µM | GI50 (HOP-62 NSCLC): 11.5 µM | TGI (HOP-62 NSCLC): 23.7 µM
